Results as given in US10875861B1, “Therapeutic compounds” (Rutgers, The State University of New Jersey, priority 2017, dated 2020).
Counter-ions that a name gives are not always drawn.

Experiments:
BMI-1 protein = test: Inhibition of BMI-1 protein levels in U87 cells (Western blotting); assay type: cell-based; details: read-out: IC50, inhibition of BMI-1 protein levels, U87 glioblastoma cell lysate, 72 hours
Experimental: U87 cells were treated with DMSO or different concentrations of compound B1 for 72 hours. Cells were lysed in Cell Lysis Buffer (Cell Signaling, #9803) supplemented with Protease Inhibitor Cocktail (Sigma, #P8340), sonicated briefly while on ice and spun down for 30 minutes at 4° C., after which the supernatant was collected. For each sample, 2 uL of lysate was mixed well into 198 uL de-ionized water. Next, 10 uL of this diluted sample was added to a well in a 96 well plate in quadruplets and mixed with Protein Assay Dye Reagent Concentrate (Bio-Rad, #500-0006) (which was diluted 1:5 with water). BSA standards of 25 ng, 50 ng, 100 ng, 200 ng and 250 ng were also used to the plate and mixed with the reagent. The plate was read in a plate reader at 600 nm and samples were calibrated to the standards to determine the concentration of protein. Using the NuPAGE system (Invitrogen), 25 ug of protein was mixed with NuPAGE LDS 4× Sample Buffer (#NP0007), NuPAGE 10× Reducing Agent (#NP0004) and water, mixed well and heated at 96° C. for 15 minutes to denature the protein. […] Protein signals were detected using ECL Western Blotting Substrate (Pierce, #32106) and filmed.
U87 cells were treated with DMSO or different concentrations of the inhibitors for 72 hours. […] The plate was read in a plate reader at 600 nm and samples were calibrated to the standards to determine the concentration of protein. […]

U87 glioblastoma cells = test: Comparison of Example 3 and PTC-209 in U87 glioblastoma cells (cell viability); assay type: cell-based
Description: (§1) BMI-1 inhibitors were developed by the Molecular Design and Synthesis laboratory, Rutgers Translational Sciences at Rutgers University, NJ, USA. […] (Generic name is PTC-209) was characterized among a screen for post-transcriptional inhibitors of BMI-1. Zebrafish embryo toxicology assays were used to select RU-A compounds with no embryonic toxicity in vivo (a surrogate assay for toxic effects on normal stem cells). […] Cells were counted using Beckman Coulter Vi-CELL Cell Viability Analyzer, and cell viability was confirmed by CellTiter-Glo Luminescent Cell Viability Assay (Promega, Madison, Wis., USA) according to standard protocols and analyzed with a Victor 2 plate reader (Wallac, Turku, Finland).

[1] = system: BMI-1 and ubiquitinated histone H2A in primary glioblastoma cells; test: Modulation / dynamics of BMI-1 and downstream targets in GBM cells (Western blotting); assay type: cell-based, human
Experimental: Different GBM cells were treated with DMSO or different concentrations of the B compounds for 72 hours. Cells were lysed in Cell Lysis Buffer (Cell Signaling, #9803) supplemented with Protease Inhibitor Cocktail (Sigma, #P8340), spun down for 30 minutes at 4° C., after which the supernatant was collected at every time point indicated. Western blotting analysis was performed on all samples as described above. BMI-1 loss started at 6-12 h, coinciding with an upper shift and hyper-phosphorylation of BMI-1 at 12-24 h and complete depletion at 72 h.
To study the compound dynamic activity against GBM spheres, GBMs were tested with exemplary compounds. Different GBM cells were treated with DMSO or different concentrations of the inhibitors for 72 hours. Cells were lysed in Cell Lysis Buffer (Cell Signaling, #9803) supplemented with Protease Inhibitor Cocktail (Sigma, #P8340), spun down for 30 minutes at 4° C., after which the supernatant was collected at every time point indicated. Western blotting analysis was performed on all samples as described above. […] BMI-1 loss started at 6-12 h, coinciding with an upper shift and hyper-phosphorylation of BMI-1 at 12-24 h and complete depletion at 72 h. […] This is expected since BMI-1 is known to suppress p21. BMI-1 inhibition could be reversed using phosphatase treatment, moreover, when proteasomal inhibitor is added to treated cells after 24 h, BMI-1 is locked in the phosphorylated state, therefore showing that the phosphorylation event precedes BMI-1 degradation. The phosphorylation was independent of p38 kinase activation, as when we added […], the p38 inhibitor to the cultured cells upon treatment with the BMI-1 inhibitor, the combined treatment could not reverse the effects of RU-A15 on BMI-1 inhibition.

BMI-1 5'UTR = test: Luciferase plasmid containing the BMI-1 5'UTR with or without binding pocket; assay type: cell-based
Experimental: Since translation initiation is dependent on RNA folding, the 3D folding of the BMI-1 5′UTR was examined. To identify sequences that fold into a target minimum and maximum free energy (MFE) secondary structure, inverse RNA folding of the BMI-1 5′UTR was performed using the mFold server. A highly probable, probability annotated group of secondary structures were identified, starting with the MFE, centroid energy structures and including fourteen other probabilities. […] In a luciferase plasmid containing the BMI-1 5′UTR, the sequences of the pocket region that contains the potential binding site was removed by cutting with compatible restriction enzymes and re-ligating the plasmid. The luciferase activity was examined with the luc plasmids or without the binding pocket upon treatment with the inhibitors. […] Thus, RU-A15/A16 engages with the BMI-1 UTR regulatory mechanisms.

BMI-1 and αENaC mRNA = test: mRNA expression of BMI-1 and αENaC on concomitant treatment with cyclohexamide; assay type: cell-based; details: RU-A15 100 nM, RU-A16 200 nM, concomitant with CHX
Experimental: Next, to test if Examples 3 and 4 are selective for BMI-1 RNA, cells were concomitantly treated with RU-A15/16 (100 nM, 200 nM, respectively) and cyclohexamide (CHX), a general translational inhibitor, and analyzed mRNA expression of BMI-1 and the CHX-specific target epithelial sodium channel (αENaC).

normal astrocytes = test: Effects on normal astrocytes; assay type: cell-based
Description: as §1

Zebrafish embryo = Zebrafish embryo toxicology assay; assay type: in vivo
Description: as §1

[2] = system: glioblastoma cancer stem cells; test: Sphere selectivity ratio EC50(U87)/EC50(spheres); assay type: cell-based, human; details: ratio greater than controls (DMSO and Temozolomide)
Experimental: The selectivity and potency in U87 cells were assessed vs primary GBM. Dose-response curves were generated in both spheres and monocultures and used to determine a sphere selectivity ratio (targeting Glioblastoma Initiating Cells), defined as EC50(U87)/EC50(spheres), for each compound.

[3] = primary glioblastoma cells, Western blotting

SMILES: COc1ccc(Nc2nc(-c3c(C)nc4ccccn34)cs2)cc1 [Example 3, N-(4-methoxyphenyl)-4-(2-methylimidaz[1,2-a]pyridin-3-yl)thiazol-2-aminehydrobromide]
- IC50 (BMI-1 protein): 10 nM
- potency relative to PTC-209 (U87 glioblastoma cells): one thousand-fold more potent than PTC-209
- IC50 (U87 glioblastoma cells; Homo sapiens, U-87 MG, 72 hours): 10 nM
- CDK inhibitor p21 ([1]; GBM#46 and #50): induced upregulation of the CDK inhibitor p21
- lowest concentration giving dose-dependent loss of BMI-1 protein expression ([1]; GBM#50, 72 h): 25 nM
- BMI-1 protein levels [1, 3]: inhibit BMI-1
- WT p53 levels [1, 3]: increase WT p53 levels
- ubiquitin H2A [1, 3]: inhibit ubiquitin H2A
- normalized luc, BMI-1 5'UTR with intact binding pocket (BMI-1 5'UTR; intact minor groove potential binding pocket): significantly reduced normalized luc
- normalized luc, binding pocket sequences removed (BMI-1 5'UTR; pocket sequences removed): not when the pocket sequences were removed
- BMI-1 mRNA expression (BMI-1 and αENaC mRNA): did not inhibit
- αENaC mRNA expression (BMI-1 and αENaC mRNA): did not inhibit
- effects on normal astrocytes (normal astrocytes): no significant effects
- effects in embryo assays (Zebrafish embryo): no significant effects
- selectivity for glioblastoma cancer stem cells (sphere selectivity ratio) [2]: high selectivity for glioblastoma cancer stem cells
